# Results as given in patent US6552018B1, “Pyrazole derivatives” (Daiichi Pharmaceutical Co., Ltd., priority 1997, dated 2003).
# Counter-ions that a name gives are not always drawn.
# Experiments:
# Tumor cells PC-12 = test: Tumor cell growth inhibition (MTT), PC-12; type: cell-based; conditions: PC-12 cells, culturing for 3 days with compound, absorbance at 540 nm; for GI50: Rattus norvegicus, PC-12, 72 h, read-out: GI50, concentration of the compound which showed 50% inhibition on cell growth as compared with a control group, PC-12
# Protocol: (§1) Tumor cells PC-12 and PC-6, which had been serially cultured in RPMI 1640 containing 10% fetal bovine serum, 2 mM L-glutamine, and 100 μg/ml of kanamycin sulfate, were inoculated to a 96-well microplate (1.0×10^3 cells-PC-12/150 μl/well; 5.0×10^3 cells-PC-6/150 μl/well). After 24-hour incuvation, 50 μl of a preparation containing each of the compounds of Examples 5 to 8 and Example 13 (hereinafter described) in a varied concentration was added to each well, followed by culturing for 3 days. A 5 mg/ml solution of 3-(4,5-dimethylthiazol-2-yl)-2,5-diphenyl-2H-tetrazolium bromide (MTT) was added in an amount of 20 μl per well. Four hours later, the culture broth was removed, 150 μl/well of dimethyl sulfoxide was added to the residue, and the absorbance was measured at 540 nm.
# Tumor cells PC-6 = test: Tumor cell growth inhibition (MTT), PC-6; type: cell-based; conditions: Homo sapiens, 72 h, PC-6 cells, culturing for 3 days with compound, absorbance at 540 nm, read-out: GI50, concentration of the compound which showed 50% inhibition on cell growth as compared with a control group, PC-6
# Protocol: as §1
GI50 (Tumor cells PC-12) [µg/mL],GI50 (Tumor cells PC-6) [µg/mL],SMILES,also measured
–,–,Cc1c(/C=C/CN2CCN(c3cc(F)cc(F)c3)CC2)cnn1-c1ncccc1I (as salt: hydrochloride),melting point: 212 to 216 °C (dec.)
0.00537,–,"Cc1c(/C=C/CN2CCN3c4cc(F)ccc4OCC3C2)cnn1-c1cc(N(C)C)nc(N)n1 (racemic) [Example 71, (+/−)-3-[3-[1-(2-Amino-6-dimethylamino-4-pyrimidinyl)-5-methyl-4-pyrazolyl]-2-trans-propen-1-yl]-9-fluoro-2,3,4,4a,5,6-hexahydro-1H-pyrazino[2,1-c]-1,4-benzoxazine Hydrochloride]",–
0.035,–,"Cc1c(/C=C/CN2CCN3c4ccccc4CC3C2)cnn1-c1cc(N(C)C)nc(N)n1 (racemic) [Example 72, (+/−)-2-[3-[1-(2-Amino-6-dimethylamino-4-pyrimidinyl)-5-methyl-4-pyrazolyl]-2-trans-propen-1-yl]-1,2,3,4,10,10a-hexahydropyrazino[1,2-a]indole Hydrochloride]",–
–,–,"Cc1c(/C=C/CN2CCN3c4ccccc4CCC3C2)cnn1-c1cc(N(C)C)nc(N)n1 (single isomer, unassigned; isomer a) [Example 67, 3-[3-[1-(2-Amino-6-dimethylamino-4-pyrimidinyl)-5-methyl-4-pyrazolyl]-2-trans-propen-1-yl]-2,3,4,4a,5,6-hexahydro-1H-pyrazino[1,2-a]quinoline Hydrochloride (Isomer A)]","GI50, concentration of the compound which showed 50% inhibition on cell growth as compared with a control group, PC-12 (Tumor cells PC-12): 0.0662 µg/mL"
0.0246,–,"Cc1c(/C=C/CN2CCN3c4cc(F)ccc4CCC3C2)cnn1-c1cc(N(C)C)nc(N)n1.Cl (single isomer, unassigned; isomer a) [Example 69, 3-[3-[1-(2-Amino-6-dimethylamino-4-pyrimidinyl)-5-methyl-4-pyrazolyl]-2-trans-propen-1-yl]-9-fluoro-2,3,4,4a,5,6-hexahydro-1H-pyrazin[1,2-a]quinoline Hydrochloride (Isomer A)]",–
–,–,"Cc1c(/C=C/CN2CCN3c4ccccc4CCC3C2)cnn1-c1cc(N(C)C)nc(N)n1 (single isomer, unassigned; isomer b) [Example 68, 3-[3-[1-(2-Amino-6-dimethylamino-4-pyrimidinyl)-5-methyl-4-pyrazolyl]-2-trans-propen-1-yl]-2,3,4,4a,5,6-hexahydro-1H-pyrazino[1,2-a]quinoline Hydrochloride (Isomer B)]","GI50, concentration of the compound which showed 50% inhibition on cell growth as compared with a control group, PC-12 (Tumor cells PC-12): 0.00916 µg/mL"
0.0101,–,"Cc1c(/C=C/CN2CCN3c4cc(F)ccc4CCC3C2)cnn1-c1cc(N(C)C)nc(N)n1 (single isomer, unassigned; isomer b) [Example 70, 3-[3-(1-(2-Amino-6-dimethylamino-4-pyrimidin-yl)-5-methyl-4-pyrazolyl)-2-trans-propen-1-yl]-9-fluoro-2,3,4,4a,5,6-hexahydro-1H-pyrazino[1,2-a]quinoline (Isomer B)]",–
0.0913,0.0106,"Cc1c(/C=C/CN2CCN(c3cc(F)cc(Cl)c3)CC2)cnn1-c1ncccc1Cl.Cl [Example 5, 3-[4-(3-Chloro-5-fluorophenyl)-1-piperazinyl]-1-[1-(3-chloro-2-pyridyl)-5-methyl-4-pyrazolyl]-1-trans-propene Hydrochloride]",–
0.0347,0.00879,"Cc1c(/C=C/CN2CCN(c3cc(F)cc(F)c3)CC2)cnn1-c1ncccc1Cl.Cl [Example 6, 1-[1-(3-Chloro-2-pyridyl)-5-methyl-4-pyrazolyl]-3-[4-(3,5-difluorophenyl)-1-piperazinyl]-1-trans-propene Hydrochloride]",–
0.237,0.0382,Cc1c(/C=C/CN2CCN(c3cc(Cl)cc(Cl)c3)CC2)cnn1-c1ncccc1Cl.Cl [Example 7],–
0.21,0.0373,"Cc1c(/C=C/CN2CCN(c3cccc(Cl)c3)CC2)cnn1-c1ncccc1Cl.Cl [Example 8, 3-[4-(3-Chlorophenyl)-1-piperazinyl]-1-[1-(3-chloro-2-pyridyl)-5-methyl-4-pyrazolyl]-1-propene Hydrochloride]",–
0.0383,0.00493,"COc1cccnc1-n1ncc(/C=C/CN2CCN(c3cc(Cl)cc(Cl)c3)CC2)c1C.Cl [Example 13, 3-[4-(3,5-Dichlorophenyl)-1-piperazinyl]-1-[1-(3-methoxy-2-pyridyl)-5-methyl-4-pyrazolyl]-1-trans-propene Hydrochloride]",–
0.0134,–,"Cc1c(/C=C/CN2CCN(c3cc(F)cc(F)c3)CC2)cnn1-c1cc(N)nc(N)n1.Cl [Example 58, 1-[1-(2,6-Diamino-4-pyrimidinyl)-5-methyl-4-pyrazolyl]-3-[4-(3,5-difluorophenyl)-1-piperazinyl]-1-trans-propene Hydrochloride]",–
0.011,–,"CNc1cc(-n2ncc(/C=C/CN3CCN(c4cc(F)cc(F)c4)CC3)c2C)nc(N)n1.Cl [Example 59, 1-[1-(2-Amino-6-methylamino-4-pyrimidinyl)-5-methyl-4-pyrazolyl]-3-[4-(3,5-difluorophenyl)-1-piperazinyl]-1-trans-propene Hydrochloride]",–
0.0207,–,"Cc1c(/C=C/CN2CCN(c3cc(F)cc(F)c3)CC2)cnn1-c1nc(N)nc(N(C)C)n1.Cl [Example 60, 1-[1-(2-Amino-4-dimethylamino-1,3,5-triazin-6-yl)-5-methyl-4-pyrazolyl]-3-[4-(3,5-difluorophenyl)-1-piperazinyl]-1-trans-propene Hydrochloride]",–
